Consider 28 compounds from publication PMC9976286, “Combination of In Silico and In Vitro Screening to Identify Novel Glutamate Carboxypeptidase II Inhibitors” (Journal of Chemical Information and Modeling, 2023).

In general, Ki refers to the dissociation constant of the complex between target and ligand, obtained from inhibition or displacement. The inhibition is the change of the read-out against control, counted positive when it falls.

Molecules are shown by their SMILES. Where “and” joins values, the source holds several entries; their conditions need not be identical. Identical values can stand only once. Like-named read-outs stand apart in the source and are kept apart here.

In one assay the test system is GCPII. The settings on record: cited from earlier work; for Ki: read-out: Ki[nM] (54 actives, PDB ID).
Another assay deals with T1, Recombinant human HDAC10 (Homo sapiens, UniProt Q969S8).
T1 construct: made in house
T1 sequence (Q969S8 1-669): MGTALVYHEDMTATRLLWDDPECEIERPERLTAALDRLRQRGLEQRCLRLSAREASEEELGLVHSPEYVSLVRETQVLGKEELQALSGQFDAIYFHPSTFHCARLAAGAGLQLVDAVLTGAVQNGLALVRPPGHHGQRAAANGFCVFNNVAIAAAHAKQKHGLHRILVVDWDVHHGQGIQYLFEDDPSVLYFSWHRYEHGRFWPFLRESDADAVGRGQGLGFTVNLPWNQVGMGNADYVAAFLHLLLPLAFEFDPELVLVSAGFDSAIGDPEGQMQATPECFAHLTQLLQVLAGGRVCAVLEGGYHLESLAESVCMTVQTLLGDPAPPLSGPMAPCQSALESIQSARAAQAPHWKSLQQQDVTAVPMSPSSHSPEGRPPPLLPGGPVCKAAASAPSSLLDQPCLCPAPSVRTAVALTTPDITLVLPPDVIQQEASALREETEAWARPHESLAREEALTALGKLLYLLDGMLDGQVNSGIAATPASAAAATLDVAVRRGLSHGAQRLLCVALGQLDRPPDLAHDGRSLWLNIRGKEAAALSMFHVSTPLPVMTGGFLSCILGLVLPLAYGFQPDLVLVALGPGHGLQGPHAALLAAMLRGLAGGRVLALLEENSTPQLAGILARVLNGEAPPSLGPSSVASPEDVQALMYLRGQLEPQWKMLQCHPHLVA
The assay can be described thus: Inhibitor specificity: fluorescence-based HDAC10 activity assay. It counts as biochemical. The conditions noted are these: for HDAC10 inhibition (in words): off-target specificity. As for the experimental part:
The fluorescence-based activity assay used was developed in-house. Recombinant human HDAC10 purified as described previously[43] (0.5 nM) was preincubated with dilution series of compounds in 50 mM 4-(2-hydroxyethyl)-1-piperazineethanesulfonic acid (HEPES), 140 mM NaCl, 10 mM KCl, 2 mg/mL bovine serum albumin (BSA), and 1 mM tris(2-carboxyethyl) phosphine, pH 7.4 at 37 °C for 10 min. The reaction was initiated by the addition of a 10 μM substrate (spermidine labeled with fluorescein, provided by the group of Prof. Mike Schutkowski)[43] in a total volume of 50 μL. Following 30-min incubation, the reaction was terminated by the addition of 5 μL of 0.5% acetic acid and centrifuged at 2000g at room temperature for 15 min to remove precipitated BSA. […] The HDAC10 inhibition was calculated using the noninhibited reaction as a control. Inhibition constants of the compounds were determined using increasing concentrations of inhibitors. The data were fitted using the GraphPad Prism software,[44] and IC50 values were calculated from the inhibition curves of two independent experiments using a nonlinear analysis protocol.

The target of assay [1] is T2, Recombinant human GCPII (Homo sapiens, UniProt Q04609).
T2 construct: made in house
Nature of the assay: In vitro GCPII inhibition assay, fluorescence-based, RP-HPLC readout (screening at 20 μM and IC50). It counts as biochemical. The settings on record: for IC50: substrate concentration at KM (100 nM Glu-Glu dipeptide labeled with fluorescein). The procedure:
The inhibitory potency of the selected compounds against GCPII was determined using a fluorescence-based assay developed in-house. Recombinant human GCPII purified as described previously[40],[41] (final concentration 0.02 nM) was preincubated with 20 μM test compound for the screening in 50 mM Tris-HCl, 150 mM NaCl, 0.001% C12E8 at 37 °C for 10 min. The reaction was initiated by the addition of 100 nM Glu-Glu dipeptide labeled with fluorescein (substrate)[42] in a total volume of 50 μL. Following 15 min incubation, the reaction was terminated by the addition of 5 μL of 0.1% TFA in 5% acetonitrile. […] The data were fitted using the GraphPad Prism software, and IC50 values were calculated from the inhibition curves of two independent experiments using a nonlinear analysis protocol.

Assay [2] concerns the target T2, Recombinant human GCPII. The assay can be described thus: GCPII IC50 with substrate concentration 10x above KM (mode of inhibition). The settings on record: for Increase of GCPII IC50 at 10x KM substrate versus KM: IC50 at 1 μM substrate relative to IC50 at 100 nM substrate; for IC50: substrate concentration 10 times above KM (1 μM). It counts as biochemical. As for the experimental part:
The inhibitory potency of the selected compounds against GCPII was determined using a fluorescence-based assay developed in-house. Recombinant human GCPII purified as described previously[40],[41] (final concentration 0.02 nM) was preincubated with 20 μM test compound for the screening in 50 mM Tris-HCl, 150 mM NaCl, 0.001% C12E8 at 37 °C for 10 min. […] Following 15 min incubation, the reaction was terminated by the addition of 5 μL of 0.1% TFA in 5% acetonitrile. Reaction mixtures were then analyzed by RP-HPLC with a Kinetex 2.6 μm XB-C18 100 Å column with a fluorescence detector set to λEX/λEM = 492/516. The GCPII inhibition in the SPECS hits samples was calculated using the noninhibited reaction as a control. Inhibition constants of the compounds active in the in vitro screening were determined using increasing concentrations of inhibitors. The data were fitted using the GraphPad Prism software, and IC50 values were calculated from the inhibition curves of two independent experiments using a nonlinear analysis protocol.

Where [3] appears, read: dataset of 54 GCPII ligands compiled from the PDB, read-out: IC50[nM] (54 actives, PDB ID).
[4] abbreviates: dataset of 54 GCPII ligands compiled from the PDB.
[5] abbreviates: 10 μM fluorescein-labeled spermidine substrate, read-out: HDAC10 IC50.
[6] abbreviates: read-out: GCPII IC50 at substrate concentration 10 times above the KM.

T2 sequence (Q04609 whole entry): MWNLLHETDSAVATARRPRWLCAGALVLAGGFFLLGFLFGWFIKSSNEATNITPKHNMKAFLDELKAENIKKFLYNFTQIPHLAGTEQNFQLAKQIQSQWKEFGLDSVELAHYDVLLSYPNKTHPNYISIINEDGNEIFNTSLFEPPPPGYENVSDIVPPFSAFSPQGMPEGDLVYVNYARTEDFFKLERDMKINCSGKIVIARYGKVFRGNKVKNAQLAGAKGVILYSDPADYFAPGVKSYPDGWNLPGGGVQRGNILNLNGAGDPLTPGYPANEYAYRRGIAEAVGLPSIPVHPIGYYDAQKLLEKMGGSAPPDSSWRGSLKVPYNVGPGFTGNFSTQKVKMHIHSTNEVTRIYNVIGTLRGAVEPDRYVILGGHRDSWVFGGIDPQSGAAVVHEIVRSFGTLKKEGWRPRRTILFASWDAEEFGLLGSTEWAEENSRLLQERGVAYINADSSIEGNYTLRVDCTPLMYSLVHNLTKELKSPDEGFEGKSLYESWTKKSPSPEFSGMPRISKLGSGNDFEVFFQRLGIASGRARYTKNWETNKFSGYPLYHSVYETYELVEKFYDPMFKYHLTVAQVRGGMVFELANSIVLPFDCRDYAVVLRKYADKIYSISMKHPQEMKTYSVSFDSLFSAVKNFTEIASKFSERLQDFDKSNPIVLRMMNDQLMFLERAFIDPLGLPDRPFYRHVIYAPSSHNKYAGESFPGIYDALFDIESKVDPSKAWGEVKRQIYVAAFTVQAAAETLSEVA

Turning to `CSC[C@H](NC(=O)N[C@@H](CCC(=O)O)C(=O)O)C(=O)O` [Compound 3D7G], in the assay on GCPII (setting [3]), the IC50 was 17 nM.

Consider `CSCC[C@H](NC(=O)N[C@@H](CCCCNC(=O)c1ccc(I)cc1)C(=O)O)C(=O)O` [Compound 3SJF], for which the IC50 with GCPII (setting [3]) was 23 nM.

On to `O=C(O)CC[C@H](N[P@](=O)(O)OCCC[C@H](NC(=O)CC[C@H](NC(=O)c1ccc(F)cc1)C(=O)O)C(=O)O)C(=O)O` [Compound 4LQG], for which the IC50 with GCPII (setting [3]) was 1.3 nM.

For `CC(=O)N(CCCC[C@H](NC(=O)N[C@@H](CCC(=O)O)C(=O)O)C(=O)O)Cc1ccc(Br)cc1` [Compound 4NGM], the Ki at GCPII (setting [4]) was 0.0449 nM.

With `O=CNCCCC[C@H](NC(=O)N[C@@H](CCC(=O)O)C(=O)O)C(=O)O` [Compound 4NGN], on GCPII (setting [4]), the Ki is 0.268 nM.

With `O=C(N[C@@H](CCCCNC(=O)c1ccc(I)cc1)C(=O)O)NC1(C(=O)O)CC1` [Compound 4OC0], the Ki at GCPII (setting [4]) is 318 nM.

Consider `O=C(N[C@@H](CCCCNC(=O)c1ccc(I)cc1)C(=O)O)N[C@@H](C[C@H]1CO1)C(=O)O` [Compound 4OC1], for which the inhibition constant (Ki) on GCPII (setting [4]) was 254 nM.

As for `C#CC[C@H](NC(=O)N[C@@H](CCCCNC(=O)c1ccc(I)cc1)C(=O)O)C(=O)O` [Compound 4OC2], on GCPII (setting [4]), the Ki was 5.3 nM.

Regarding `O=C(N[C@@H](CCCCNC(=O)c1ccc(I)cc1)C(=O)O)N[C@@H](Cc1ccco1)C(=O)O` [Compound 4OC3], the Ki on GCPII (setting [4]) is 5.3 nM.

As to `O=C(N[C@@H](CCCCNC(=O)c1ccc(I)cc1)C(=O)O)N[C@@H](Cc1ccncc1)C(=O)O` [Compound 4OC4], the Ki on GCPII (setting [4]) is 105 nM.

Consider `O=C(N[C@@H](CCCCNC(=O)c1ccc(I)cc1)C(=O)O)N[C@H](C(=O)O)c1ccc(O)cc1` [Compound 4OC5], for which, on GCPII (setting [4]), the inhibition constant Ki is 85 nM.

In the case of `O=C(O)CC[C@H](N[P@](=O)(O)OCCNC(=O)c1ccccc1)C(=O)O` [Compound 4P4D], in the assay on GCPII (setting [3]), the IC50 was 1800 nM.

Take `O=C(O)CC[C@H](N[P@](=O)(O)OCCCCc1ccccc1)C(=O)O` [Compound 4P4E]: the IC50 in the assay on GCPII (setting [3]) was 180 nM.

Turning to `O=C(O)CC[C@H](N[P@](=O)(O)OCc1ccc(-c2ccccc2)cc1)C(=O)O` [Compound 4P4F], in the assay on GCPII (setting [3]), the IC50 is 168 nM.

On to `O=C(O)CC[C@H](N[P@](=O)(O)OC[C@H](NC(=O)c1ccccc1)C(=O)O)C(=O)O` [Compound 4P4I], for which the IC50 in the assay on GCPII (setting [3]) was 35 nM.

Regarding `O=C(O)CC[C@H](N[P@](=O)(O)OC[C@@H](NC(=O)c1ccccc1)C(=O)O)C(=O)O` [Compound 4P4J], the IC50 in the assay with GCPII (setting [3]) is 700 nM.

Take `CC[C@@H](C)[C@H](NC(=O)c1ccc(F)cc1)C(=O)N[C@@H](CO[P@@](=O)(O)N[C@@H](CCC(=O)O)C(=O)O)C(=O)O` [Compound 4P44]: the IC50 in the assay with GCPII (setting [3]) is 16 nM.

On to `CC(C)[C@H](NC(=O)c1ccc(F)cc1)C(=O)N[C@@H](CO[P@@](=O)(O)N[C@@H](CCC(=O)O)C(=O)O)C(=O)O` [Compound 4P45], for which, in the assay on GCPII (setting [3]), the IC50 was 16 nM.

In the case of `O=C(CC[C@@H](Cc1ccc(C(=O)O)cc1)C(=O)O)NO` [Compound 5D29], the IC50 in the assay with GCPII (setting [3]) was 97 nM.

With `O=C(CC[C@H](Cc1ccc(C(=O)O)cc1)C(=O)O)NO` [Compound 5ELY], the IC50 with GCPII (setting [3]) was 44 nM.

For the compound `O=C(O)CC[C@H](NC(=O)N[C@@H](CCCC(=O)NCc1ccc(F)cc1)C(=O)O)C(=O)O` [Compound 5OF0], the IC50 in the assay on GCPII (setting [3]) is 2.32 nM.

As for `O=C(O)CC[C@H](NC(=O)N[C@@H](CCCC(=O)Nc1ccc(F)cc1)C(=O)O)C(=O)O` [Compound 6H7Y], in the assay with GCPII (setting [3]), the IC50 was 0.35 nM.

As for `CN(C(=O)CCC[C@H](NC(=O)N[C@@H](CCC(=O)O)C(=O)O)C(=O)O)c1ccc(F)nc1` [Compound 6H7Z], in the assay with GCPII (setting [3]), the IC50 was 0.13 nM.

Turning to `O=C(O)CC[C@H](NC(=O)N[C@@H](CCCC(=O)Nc1ccc(F)nc1)C(=O)O)C(=O)O` [Compound 6HKJ], the IC50 with GCPII (setting [3]) is 0.99 nM.

Take `O=C(O)CSC1=C(SCC(=O)O)C(=O)C(SCC(=O)O)=C(SCC(=O)O)C1=O` [Compound 17]: the IC50 is 2210 nM and 2200 nM at Recombinant human HDAC10 (setting [5]); 4500 nM and 4510 nM on Recombinant human GCPII [1]; 9390 nM at Recombinant human GCPII [2] (read-out: GCPII IC50 10x > KM); 9400 ± 100 nM on Recombinant human GCPII [2] (setting [6]). Moreover, the “Increase of GCPII IC50 at 10x KM substrate versus KM” value (“Increase of GCPII IC50” below) at Recombinant human GCPII [2] is reported as “approximately twice”.

On to `O=[N+]([O-])c1ccc(C(CCc2nnn[nH]2)(CCc2nnn[nH]2)c2nnn[nH]2)cc1` [Compound 18], for which the IC50 was greater than 100000 nM at Recombinant human HDAC10 (setting [5]), 15000 nM on Recombinant human GCPII [1], 27600 nM at Recombinant human GCPII [2] (read-out: GCPII IC50 10x > KM) and greater than 20000 nM at Recombinant human GCPII [2] (setting [6]). Also, at Recombinant human HDAC10, the “HDAC10 inhibition (in words)” value was “did not exhibit any HDAC10 inhibition”. The inhibition at 20 µM at Recombinant human GCPII [1] (compound at 20 μM, 100 nM fluorescein-labeled Glu-Glu dipeptide substrate, read-out: Inhibition [%] of GCPII activity) is greater than 50%. In addition, the “Increase of GCPII IC50” value at Recombinant human GCPII [2] is “approximately twice”.

In the case of `O=C(O)c1ccccc1-c1c2ccc(=O)c(I)c-2oc2c(I)c(OS(=O)(=O)c3ccc(Br)cc3)ccc12` [Compound 46], the IC50 is greater than 100000 nM on Recombinant human HDAC10 (HDAC10 IC50, 10 μM fluorescein-labeled spermidine substrate); 353 ± 24 nM on Recombinant human GCPII [1]; 1350 nM at Recombinant human GCPII [2] (read-out: GCPII IC50 10x > KM); 1400 ± 100 nM on Recombinant human GCPII [2] (setting [6]). The “HDAC10 inhibition (in words)” value at Recombinant human HDAC10 is given as “did not exhibit any HDAC10 inhibition”. Moreover, on Recombinant human GCPII [2], the “Increase of GCPII IC50” value is recorded as 4 fold.

In the case of `O=C(O)CC[C@H](NC(=O)N[C@@H](CCCC(=O)N(CCNC(=O)c1ccc(F)nc1)c1ccccc1)C(=O)O)C(=O)O` [RNA 2-49-1], the IC50 in the assay with GCPII (setting [3]) is 0.075 nM; with GCPII (read-out: GCPII IC50), 0.08 nM.
